In ChEMBL document CHEMBL1149483, “Identification of potent agonists of photoreceptor-specific nuclear receptor (NR2E3) and preparation of a radioligand” (Bioorg Med Chem Lett, 2006):

Assays:
[1] = target: T1, Photoreceptor-specific nuclear receptor (Homo sapiens, UniProt Q9Y5X4); assay: Agonist activity at NR2E3 by beta lactamase transactivation assay; assay type: functional
[2] = target: T1, Photoreceptor-specific nuclear receptor; assay: Agonist activity at NR2E3 by luciferase NCOR release assay in CHO cells; assay type: functional, cell-based

T1 sequence (Q9Y5X4 whole entry): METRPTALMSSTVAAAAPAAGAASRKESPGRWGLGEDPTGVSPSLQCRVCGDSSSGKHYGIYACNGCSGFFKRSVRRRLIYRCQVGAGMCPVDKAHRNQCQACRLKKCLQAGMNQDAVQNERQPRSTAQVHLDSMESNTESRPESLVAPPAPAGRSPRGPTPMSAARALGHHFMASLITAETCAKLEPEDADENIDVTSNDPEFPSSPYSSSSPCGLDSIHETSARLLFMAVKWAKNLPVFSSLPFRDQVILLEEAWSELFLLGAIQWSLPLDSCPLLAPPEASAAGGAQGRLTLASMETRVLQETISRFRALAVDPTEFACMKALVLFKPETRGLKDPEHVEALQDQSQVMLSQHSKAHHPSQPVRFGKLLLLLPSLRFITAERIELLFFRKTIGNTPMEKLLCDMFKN

Row | SMILES | EC50 [1] | EC50 [2]
1 | CC(C)(C)C(=O)Nc1ccc2nc(-c3ccc(NC(=O)c4ccccc4Cl)cc3)[nH]c2c1 | 6270 nM | 2610 nM
2 | O=C(Nc1ccc(-c2nc3cc(NC(=O)C4(c5ccccc5)CC4)ccc3[nH]2)cc1)c1ccccc1Cl | > 25000 nM | 370 nM
3 | O=C(Nc1ccc2[nH]c(-c3ccc4c(c3)OCO4)nc2c1)c1ccccc1Cl | > 25000 nM | 7200 nM
4 | N#CC1(C(=O)Nc2ccc3[nH]c(-c4ccc(NC(=O)c5ccccc5Cl)cc4)nc3c2)CC1 | 17000 nM | 10000 nM
5 | O=C(Nc1ccc2nc(-c3cnn(-c4ccc(F)cc4)c3)[nH]c2c1)c1ccccc1Cl | > 25000 nM | 4100 nM
6 | O=C(Nc1ccc2nc(-c3ccc(NC(=O)c4cccnc4Cl)cc3)[nH]c2c1)c1ccccc1Cl | 4800 nM | 2200 nM
7 | O=C(Nc1cccc(-c2nc3cc(NC(=O)c4ccccc4Cl)ccc3[nH]2)c1)c1ccccc1Cl | 10000 nM | 4100 nM
8 | O=C(Nc1ccc2nc(-c3cc(Cl)cc(Cl)c3O)[nH]c2c1)c1ccccc1Cl | > 25000 nM | 4200 nM
9 | O=C(Nc1ccc(-c2nc3ccc(NC(=O)C4CCCC4)cc3[nH]2)cc1)c1ccccc1Cl | 3160 nM | 1320 nM

Compounds with a lower EC50 [1], results first:

Row | EC50 [1] | EC50 [2] | SMILES
10 | 720 nM | 260 nM | O=C(Nc1ccc(-c2nc3cc(NC(=O)[C@@H]4C[C@H]4F)ccc3[nH]2)cc1)c1ccccc1Cl
11 | 316 nM | 147 nM | CC(C)C(=O)Nc1ccc2nc(-c3ccc(NC(=O)c4ccccc4Cl)cc3)[nH]c2c1
12 | 260 nM | 330 nM | Cc1ccccc1C(=O)Nc1ccc(-c2nc3ccc(NC(=O)c4ccccc4Cl)cc3[nH]2)cc1
13 | 1330 nM | 986 nM | O=C(Nc1ccc(-c2nc3cc(NC(=O)C4CCC4)ccc3[nH]2)cc1)c1ccccc1Cl
14 | 2100 nM | 3000 nM | O=C(Nc1ccc(-c2nc3cc(NC(=O)C4CC4(F)F)ccc3[nH]2)cc1)c1ccccc1Cl (stereo unspecified)
15 | 270 nM | 610 nM | O=C(Nc1ccc(-c2nc3cc(NC(=O)c4ccccc4Cl)ccc3[nH]2)cc1)c1ccccc1
16 | 270 nM | 170 nM | O=C(Nc1ccc(-c2nc3cc(NC(=O)c4ccccc4Cl)ccc3[nH]2)cc1)c1ccccc1F
17 | 2500 nM | 2900 nM | CC1(C(=O)Nc2ccc3nc(-c4ccc(NC(=O)c5ccccc5Cl)cc4)[nH]c3c2)CC1
18 | 141 nM | 35 nM | O=C(Nc1ccc(-c2nc3ccc(NC(=O)C4CC4)cc3[nH]2)cc1)c1ccccc1Cl
